Data published in publication PMC9714824, “Hexapeptides from mammalian inhibitory hormone hunt activate and inactivate nematode reproduction” (PLOS ONE, 2022).

Experiments:
Caenorhabditis elegans = settings: 1μM per day into the aqueous medium; cited from earlier work
Excerpt: As a control compound there was synthesized EPL030, having the aa sequence KLKMNGKNIEPVFT. This is a scrambling of EPL001’s sequence, based on cards drawn at random by one of us (CRM). […] The figures for fecundity were EPL001 +43 ... || Returning to EPL030, the scrambled-sequence EPL001 comparator, this has engendered perplexity by displaying the same activity as EPL001 across multiple mammalian systems. Thus, EPL030 suppressed human prostate cancer cells in vitro more than EPL001 in two laboratories and the proliferation of rat bone marrow cells in vitro in a third.

[1] = test system: MCF-7 human breast adenocarcinoma xenografts; experiment: MCF-7 xenograft precursor study (first study); type: in vivo, nude mice; settings: for Max % weight loss: 100mg/kg/day i.p.; for Median RTV2: 100mg/kg/day i.p. on 15 days between days 0 and 20, n=8
Experimental: The MCF-7 human breast adenocarcinoma model was selected for two xenograft studies. An oestrogen pellet was implanted subcutaneously in the dorsal area 24 hours prior to 2-3mm^3 fragments of MCF-7 tumour taken from donor tumours transplanted subcutaneously in the abdominal flanks of the efficacy study mice. Once tumour volumes reached approximately 32 mm^3 (as measured by calipers, designated treatment day 0) mice were randomised into treatment groups (n=8).
In the first study four groups were used as follows: EPL001 or EPL030 at 100mg/kg/day administered i.p. on days 0, 1, 4, 5, 6, 7, 8, 11, 12, 13, 14, 15, 18, 19 and 20, plus a mouse anti-EPL001 monoclonal antibody or a control antibody directed at mouse haemocytes at 4mg/kg/day administered i.p. on days 0, 1, 2, 3, 4, 7, 8, 9, 10, 11, 14, 15, 16, 17 and 18 .
Tumour volume, using calipers, and animal body weight were recorded throughout the experiment and normalised to the respective volume on the initial day of treatment (day 0). Mann-Whitney U tests were conducted to determine the statistical significance of any differences in growth rate (based on tumour volume doubling time) between control and treated groups.

[2] = test system: human prostate cancer cell lines (LNCaP, PC3 and DU145); experiment: 3H-thymidine incorporation, prostate cancer cells; type: cell-based; settings: 0.06 or 6 μM, 24h then 48h pulse; in words (Fig 4)
Experimental: For assays involving 14mer peptides only human prostate cancer cell lines (LNCaP, PC3 and DU145) were obtained from ATCC (American Tissue Type Culture Collection, Rockville, MD, USA). Cells were cultured in DMEM (Dulbecco’s […], Life Technologies, Grand Island, NY, USA) supplemented with 10% fetal calf serum (FCS, heat-inactivated), 100 IU/ml penicillin and 10 μg/ml streptomycin (all CSL, Parkville, Victoria, Australia) in 75 cm^2 culture flasks (Becton Dickinson, Franklin Lakes, NJ, USA) and were maintained at 37°C in a humidified incubator with […]. Incorporation of ^3H-thymidine was used to assess DNA synthesis. Cells were seeded overnight at 0.5 x 10^5 cells per well in 24-well tissue culture plates in DMEM culture medium (supplemented as above with 10% FCS, penicillin and streptomycin). Cell growth was synchronised by culturing cells in DMEM containing 0.1% bovine serum albumin (supplemented with penicillin and streptomycin, but without FCS) for 24h. […]
Fig 4 EPL001 and EPL030 effects on human prostate cancer cell growth in vitro. Cell proliferation was determined by ^3H-thymidine incorporation. […]

rat bone marrow cells = experiment: Bone marrow cell assay, time-lapse cell counts over 24h; type: cell-based; settings: EPL001, EPL030 at 6μM, EPL120 at 5μM final concentration, in words (Fig 6)
Experimental: The method has been described previously at length. Bone marrow cells, consisting of various cell types including mesenchymal stem cells and fibroblasts, were cultured from adult male rats (Rattus norvegicus, SD strain). These cells were passaged from a growing primary stock in a T75 tissue culture flask (Sarstedt) into a 48 well tissue culture plate (IWAKI), with a cell density of 1 x 10^5/ml. The cell culture media, henceforth referred to as ‘supplemented a-MEMS,’ comprised α-MEMS media supplemented with 10% FCS and 1% penicillin/streptomycin (all Life Technologies, Carlsbad, CA, US). On the day of peptide addition to the cells, the supplemented α-MEMS was gently removed and fresh supplemented α-MEMS added, with 10% test material by volume to achieve micromolar concentrations, untreated controls receiving just fresh supplemented α-MEMS. (For dose levels see legends in respective result figures) All samples were filter sterilised using a Millex-GV […] syringe filter unit (Merck, Kenilworth, NJ, USA). The cells were imaged for 24 h using an incubated Zeiss Axiovert 135M microscope with a Prior Proscan II motorised stage, at 37 °C with a 5% CO2 in air feed. Each well of the 48-well tissue culture plate was then imaged for 24h every 5 min using Metamorph software (MDS Analytical Technologies, Wokingham, UK), with each well having four fields of view. The viability and cell numbers were reviewed by analysing the images captured over the 24h period and cell counts were taken at selected time points using the Metamorph software.
Fig 6 Bone marrow cells in culture exposed to long peptides. Cells were counted over 24h after exposure to the 14mer peptide EPL001 or its scrambled-sequence control EPL030 at 6μM final concentration or to the 20mer EPL120 at 5μM final concentration, compared to peptide-untreated controls.
Fig 7 Bone marrow cells in culture exposed to hexapeptides. Cells were counted over 24h after exposure to either EPL016 (= MKPLTG, the ‘Front 6’ of the 14mer EPL001) or EPL036 (= IEPVFT, the ‘Back 6’ of EPL030, the scrambled-sequence control of EPL001) at 1μM final concentration, compared to peptide-untreated controls.

Sequence	Fecundity (number of eggs), cumulative totals vs untreated controls (Caenorhabditis elegans)	Lifespan, average vs untreated controls (Caenorhabditis elegans)	Max % weight loss [1] [%]	Median RTV2 [1] [days]	Cell proliferation by 3H-thymidine incorporation [2]	Effect on bone marrow cells in culture (rat bone marrow cells)	Growth delay ([1]; EPL001 versus EPL030) [days]
KLKMNGKNIEPVFT [EPL030, …, scrambled EPL001 control]	−64%	+23%	1.2	7.3	antiproliferative	pro-apoptotic	–
MKPLTGKVKEFNNI [EPL001, 14mer master test peptide …; ovine provenance]	+43%	+18%	3.6	7.7	antiproliferative	antiproliferative	0.4
